# Measurements reported in patent US20240287003A1, “ETHACRYNIC ACID DERIVATIVES AS INHIBITORS OF MPRO PROTEASE AND SARS-COV-2 REPLICATION” (UNIVERSITE EUROMEDITERRANEENNE DE FES, priority 2021, published 2024).
# Read-outs that look alike come from different tables or passages of the source.
# Columns and labels:
# SARS-COV-2 [1] = settings: VeroE6 cells, RNA replication by qPCR; Hattori et al. 2021; read-out: EC50, blocking of SARS-COV-2 infection; cited from earlier work
# SARS-COV-2 [2] = experiment: microbe, parasite or virus in culture; type: cell-based; settings: Vero cells; for reduction in infectivity titres compared with the control: 10 μM; for reduction in the infectivity titres compared with the control: 4 h pre-incubation, MOI 0.04, 48 h; for inhibition at 6 µM / inhibition at 8 µM: Severe acute respiratory syndrome coronavirus 2; for inhibition at 6 µM: read-out: inhibition of viral replication; for inhibition at 8 µM: read-out: inhibition percentage
# Mpro = Mpro (Severe acute respiratory syndrome coronavirus 2, UniProt P0DTD1); settings: read-out: IC50 (half-maximal inhibitory concentration), Dai et al., Science 2020; cited from earlier work
# SARS-COV-2 [3] = settings: Rut et al., Nat. Chem. Biol. 2021; cited from earlier work
# [4] = 6 μM, same experimental conditions
Compound,reduction in infectivity titres compared with the control (SARS-COV-2 [2]; same experimental conditions),reduction in the infectivity titres compared with the control (SARS-COV-2 [2]; 16.6 μM),inhibition at 6 µM (SARS-COV-2 [2]; [4]),inhibition at 8 µM (SARS-COV-2 [2]; same experimental conditions),further results
O=C(Oc1cncc(Cl)c1)c1cccc2c1CCN2 [GRL-1720],,,,,EC50 (SARS-COV-2 [1]): 15 ± 4 µM
"C=C(CC)C(=O)c1ccc(OCC(=O)Nc2ccc3[nH]ncc3c2)c(Cl)c1Cl [P26, 2-(2.3-dichloro-4-(2-methylenebutanoyl)phenoxy)-N-(1H-indazol-5-yl)acetamide]",93.09%,97.96%,~30%,~52.1%,
O=C[C@H](C[C@@H]1CCNC1=O)NC(=O)[C@H](Cc1cccc(F)c1)NC(=O)c1cc2ccccc2[nH]1 [11b],,,,,IC50 (Mpro): 0.04 µM
Ac-Abu-dTyr-Leu-Gln-VS [Ac-QSS-VS (15)],,,,,EC50 (SARS-COV-2 [3]): 3.7 µM
"C=C(CC)C(=O)c1ccc(OCC(=O)Nc2cccc3cn(C)nc23)c(Cl)c1Cl [P30, 2-(2,3-dichloro-4-(2-methylenebutanoyl)phenoxy)-N-(2-methyl-2H-indazol-7-yl)acetamide]",100%,,~30%,~99.7%,reduction in the infectivity titres compared with the control (SARS-COV-2 [2]; 5.54 μM): 96.75%
"C=C(CC)C(=O)c1ccc(OCC(=O)Nc2ccc3c(cnn3C)c2)c(Cl)c1Cl [P7, 2-(2,3-dichloro-4-(2-methylenebutanoyl)phenoxy)-N-(1-methyl-1H-indazol-5-yl)acetamide]",100%,100%,,~96.7%,inhibition of viral replication (SARS-COV-2 [2]; [4]): did not inhibit virus replication at all
